Results taken from publication PMC10558427, “A Theobromine Derivative with Anticancer Properties Targeting VEGFR‐2: Semisynthesis, in silico and in vitro Studies” (ChemistryOpen, 2023).

Biological target: T1, VEGFR‐2 (Homo sapiens, UniProt P35968)
T1 construct: gene KDR
Experiment: in vitro VEGFR-2 inhibition assay (Human VEGFR ELISA kit)
Type: biochemical

T1 sequence (P35968 20-1356): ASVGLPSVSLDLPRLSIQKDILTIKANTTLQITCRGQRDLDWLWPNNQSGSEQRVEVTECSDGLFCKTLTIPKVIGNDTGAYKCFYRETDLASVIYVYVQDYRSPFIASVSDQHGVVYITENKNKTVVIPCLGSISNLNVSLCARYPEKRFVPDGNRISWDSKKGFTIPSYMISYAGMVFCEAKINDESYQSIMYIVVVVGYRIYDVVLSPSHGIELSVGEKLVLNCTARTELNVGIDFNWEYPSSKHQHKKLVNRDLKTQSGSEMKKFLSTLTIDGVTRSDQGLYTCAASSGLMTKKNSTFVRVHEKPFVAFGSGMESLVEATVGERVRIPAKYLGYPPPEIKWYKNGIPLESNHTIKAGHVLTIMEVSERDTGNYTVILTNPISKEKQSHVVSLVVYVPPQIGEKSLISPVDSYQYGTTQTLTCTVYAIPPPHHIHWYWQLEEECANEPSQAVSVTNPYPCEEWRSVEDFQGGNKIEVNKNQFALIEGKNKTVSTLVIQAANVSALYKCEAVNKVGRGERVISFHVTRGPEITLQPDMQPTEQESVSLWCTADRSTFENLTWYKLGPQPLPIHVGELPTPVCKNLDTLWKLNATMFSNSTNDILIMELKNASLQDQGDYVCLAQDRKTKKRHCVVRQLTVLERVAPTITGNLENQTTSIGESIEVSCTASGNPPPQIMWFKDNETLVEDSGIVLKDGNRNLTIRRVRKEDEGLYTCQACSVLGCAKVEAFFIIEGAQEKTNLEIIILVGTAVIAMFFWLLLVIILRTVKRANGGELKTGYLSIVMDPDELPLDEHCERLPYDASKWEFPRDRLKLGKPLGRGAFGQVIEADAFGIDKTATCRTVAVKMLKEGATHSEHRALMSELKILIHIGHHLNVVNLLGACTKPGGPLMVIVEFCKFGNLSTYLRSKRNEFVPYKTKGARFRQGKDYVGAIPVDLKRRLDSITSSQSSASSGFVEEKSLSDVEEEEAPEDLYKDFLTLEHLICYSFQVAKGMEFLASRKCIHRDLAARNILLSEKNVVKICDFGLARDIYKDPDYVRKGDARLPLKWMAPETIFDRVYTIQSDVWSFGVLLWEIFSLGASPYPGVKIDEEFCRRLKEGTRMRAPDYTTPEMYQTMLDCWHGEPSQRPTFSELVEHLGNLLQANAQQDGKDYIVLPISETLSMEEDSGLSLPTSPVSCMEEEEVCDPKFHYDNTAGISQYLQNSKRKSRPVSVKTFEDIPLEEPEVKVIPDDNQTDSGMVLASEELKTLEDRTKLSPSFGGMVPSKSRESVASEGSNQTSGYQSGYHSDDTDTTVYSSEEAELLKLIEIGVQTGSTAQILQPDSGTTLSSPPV

Cn1cnc2c1c(=O)n(CC(=O)Nc1ccc(C(=O)Nc3ccc(F)cc3)cc1)c(=O)n2C [T-1-AFPB, 4‐(2‐(3,7‐Dimethyl‐2,6‐dioxo‐2,3,6,7‐tetrahydro‐1H‐purin‐1‐yl)acetamido)‐N‐(4‐fluorophenyl)benzamide]
IC50: 69 ± 3 nM
